Values quoted from earlier work in US8586094B2, “Coated tablets” (Jagotec AG, priority 2000, dated 2013).
Read-outs that look alike come from different tables or passages of the source.

For CC(C)(Oc1ccc(C(=O)c2ccc(Cl)cc2)cc1)C(=O)O [fenofibric acid], the “elimination / plasma half-life” value is given as “approximately twenty” and the “elimination / plasma half-life” value (listed as Fenofibric acid) is given as “about 20 hours”.
